# Measurements: ChEMBL document CHEMBL1146151, “Polyoxometalates--a new class of potent ecto-nucleoside triphosphate diphosphohydrolase (NTPDase) inhibitors” (Bioorg Med Chem Lett, 2006)
# Target: T1, Ectonucleoside triphosphate diphosphohydrolase 2 (Rattus norvegicus) (UniProt O35795)
# T1 sequence (whole entry): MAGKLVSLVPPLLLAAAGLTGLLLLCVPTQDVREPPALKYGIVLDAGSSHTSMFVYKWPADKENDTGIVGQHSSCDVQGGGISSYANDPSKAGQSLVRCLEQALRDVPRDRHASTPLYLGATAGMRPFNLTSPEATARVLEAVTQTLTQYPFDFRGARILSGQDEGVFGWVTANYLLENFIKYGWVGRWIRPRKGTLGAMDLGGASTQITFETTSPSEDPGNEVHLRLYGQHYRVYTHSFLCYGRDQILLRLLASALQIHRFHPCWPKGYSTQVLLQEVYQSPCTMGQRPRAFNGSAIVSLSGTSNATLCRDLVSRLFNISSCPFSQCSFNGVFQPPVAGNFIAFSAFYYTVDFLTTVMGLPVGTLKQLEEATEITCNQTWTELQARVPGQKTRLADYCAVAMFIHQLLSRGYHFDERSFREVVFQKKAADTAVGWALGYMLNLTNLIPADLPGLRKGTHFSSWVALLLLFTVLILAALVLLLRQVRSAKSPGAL
# Conditions: CHO, 1 mM
# Description: Inhibition of rat recombinant NTPDase2 expressed in CHO cells at 1 mM
compound,measurement,value
CCN(CC)c1ncnc2c1ncn2[C@@H]1O[C@H](COP(=O)(O)OP(=O)(O)C(Br)(Br)P(=O)(O)O)[C@@H](O)[C@H]1O,inhibition,50%
